Data as given in PubChem BioAssay AID212 (DTP/NCI, 2004).
“And” between values parts separate entries of the source, which are not always exact repeats. Equal entries are not always repeated. Results filed as inconclusive are left out.

System: BDF1 mice, colon carcinoma 38 sc, T/C %
Assay: NCI In Vivo Anticancer Drug Screen. Data for tumor model Colon Carcinoma 38 (subcutaneous) in B6D2F1 (BDF1) mice
Protocol: The antitumor activity of compounds was measured in mice bearing transplantable tumors. Survival or tumor size were measured and the results are expressed as the measurement made in the treated group (T) divided by the measurement made in the vehicle treated control group (C). The tumor model used in this assay is Colon Carcinoma 38 (subcutaneous) in B6D2F1 (BDF1) mice

[1] = endpoint: median tumor weight (est.), dose: 100.0 mg/kg/injection, schedule: Q07DX002 (ip), vehicle: saline with Tween-80, higher = larger tumour
[2] = endpoint: median tumor weight (est.), dose: 200.0 mg/kg/injection, schedule: Q07DX002 (ip), vehicle: saline with Tween-80, higher = larger tumour
[3] = endpoint: median tumor weight (est.), dose: 400.0 mg/kg/injection, schedule: Q07DX002 (ip), vehicle: saline with Tween-80, higher = larger tumour
[4] = endpoint: median tumor weight (est.), dose: 25.0 mg/kg/injection, schedule: Q07DX002 (ip), vehicle: saline, higher = larger tumour
[5] = endpoint: median tumor weight (est.), dose: 50.0 mg/kg/injection, schedule: Q07DX002 (ip), vehicle: saline, higher = larger tumour
[6] = endpoint: median tumor weight (est.), dose: 200.0 mg/kg/injection, schedule: Q07DX002 (ip), vehicle: saline, higher = larger tumour

CC(=O)C1=C(O)C2(O)C(=O)c3c(c(C)c4ccc(C)c(O)c4c3O)CC2C(N)C1=O (stereo unspecified)
T/C (endpoint: median tumor weight (est.), dose: 7.5 mg/kg/injection, schedule: Q07DX002 (ip), vehicle: saline + alcohol, higher = larger tumour): 79 % of control and 95 % of control | T/C (endpoint: median tumor weight (est.), dose: 15.0 mg/kg/injection, schedule: Q07DX002 (ip), vehicle: saline + alcohol, higher = larger tumour): 87 % of control and 106 % of control | T/C (endpoint: median tumor weight (est.), dose: 60.0 mg/kg/injection, schedule: Q07DX002 (ip), vehicle: saline + alcohol, higher = larger tumour): 95 % of control and 107 % of control | T/C (endpoint: median tumor weight (est.), dose: 120.0 mg/kg/injection, schedule: Q07DX002 (ip), vehicle: saline + alcohol, higher = larger tumour): 87 % of control

CCCCCC1c2cc(O)ccc2OC1N1CCOCC1 (stereo unspecified)
T/C (endpoint: median tumor weight (est.), dose: 12.0 mg/kg/injection, schedule: Q07DX002 (ip), vehicle: saline with Tween-80, higher = larger tumour): 107 % of control | T/C (endpoint: median tumor weight (est.), dose: 25.0 mg/kg/injection, schedule: Q07DX002 (ip), vehicle: saline with Tween-80, higher = larger tumour): 161 % of control | T/C [1]: 169 % of control | T/C [2]: 55 % of control | T/C [3]: 170 % of control | T/C (endpoint: median tumor weight (est.), dose: 450.0 mg/kg/injection, schedule: Q07DX002 (ip), vehicle: saline with Tween-80, higher = larger tumour): 120 % of control | T/C (endpoint: median tumor weight (est.), dose: 900.0 mg/kg/injection, schedule: Q07DX002 (ip), vehicle: saline with Tween-80, higher = larger tumour): 154 % of control

CCC1OCC(C(Cl)CCl)O1 (stereo unspecified)
T/C (endpoint: median tumor weight (est.), dose: 12.5 mg/kg/injection, schedule: Q07DX002 (ip), vehicle: Klucel (hydroxypropylcellulose) (HPC), higher = larger tumour): 101 % of control | T/C (endpoint: median tumor weight (est.), dose: 12.5 mg/kg/injection, schedule: Q07DX003 (ip), vehicle: Klucel (hydroxypropylcellulose) (HPC), higher = larger tumour): 82 % of control | T/C (endpoint: median tumor weight (est.), dose: 25.0 mg/kg/injection, schedule: Q07DX002 (ip), vehicle: Klucel (hydroxypropylcellulose) (HPC), higher = larger tumour): 95 % of control and 96 % of control | T/C (endpoint: median tumor weight (est.), dose: 25.0 mg/kg/injection, schedule: Q07DX003 (ip), vehicle: Klucel (hydroxypropylcellulose) (HPC), higher = larger tumour): 96 % of control | T/C (endpoint: median tumor weight (est.), dose: 50.0 mg/kg/injection, schedule: Q07DX003 (ip), vehicle: Klucel (hydroxypropylcellulose) (HPC), higher = larger tumour): 92 % of control | T/C (endpoint: median tumor weight (est.), dose: 100.0 mg/kg/injection, schedule: Q07DX003 (ip), vehicle: Klucel (hydroxypropylcellulose) (HPC), higher = larger tumour): 69 % of control | T/C (endpoint: median tumor weight (est.), dose: 200.0 mg/kg/injection, schedule: Q07DX002 (ip), vehicle: Klucel (hydroxypropylcellulose) (HPC), higher = larger tumour): 203 % of control | T/C (endpoint: median tumor weight (est.), dose: 200.0 mg/kg/injection, schedule: Q07DX003 (ip), vehicle: Klucel (hydroxypropylcellulose) (HPC), higher = larger tumour): 67 % of control | T/C (endpoint: median tumor weight (est.), dose: 400.0 mg/kg/injection, schedule: Q07DX003 (ip), vehicle: Klucel (hydroxypropylcellulose) (HPC), higher = larger tumour): 39 % of control

Nc1ncnc2c1ncn2C1OC(COS(N)(=O)=O)C(O)C1O (stereo unspecified)
T/C (endpoint: median survival time, dose: 0.25 mg/kg/injection, schedule: Q02DX004 (sc), vehicle: saline, higher = longer survival): 100 % of control | T/C (endpoint: median survival time, dose: 0.5 mg/kg/injection, schedule: Q02DX004 (sc), vehicle: saline, higher = longer survival): 100 % of control

CC(C)NC(=O)OCc1c(COC(=O)NC(C)C)c(-c2ccc(Cl)c(Cl)c2)n2c1CCC2
T/C (endpoint: median tumor weight (est.), dose: 12.5 mg/kg/injection, schedule: Q07DX002 (ip), vehicle: distilled water + Tween-80, higher = larger tumour): 82 % of control and 99 % of control | T/C (endpoint: median tumor weight (est.), dose: 25.0 mg/kg/injection, schedule: Q07DX002 (ip), vehicle: distilled water + Tween-80, higher = larger tumour): 114 % of control and 94 % of control and 107 % of control | T/C (endpoint: median tumor weight (est.), dose: 50.0 mg/kg/injection, schedule: Q07DX002 (ip), vehicle: distilled water + Tween-80, higher = larger tumour): 53 % of control and 67 % of control

CC1=CC(=NN=c2cc(C)n([O-])c(C)c2)C=C(C)[N+]1=O
T/C (endpoint: median tumor weight (est.), dose: 12.5 mg/kg/injection, schedule: Q07DX002 (ip), vehicle: saline, higher = larger tumour): 82 % of control | T/C [4]: 108 % of control | T/C (endpoint: median tumor weight (est.), dose: 25.0 mg/kg/injection, schedule: Q07DX002 (ip), vehicle: suspension in saline, higher = larger tumour): 123 % of control | T/C [5]: 73 % of control | T/C (endpoint: median tumor weight (est.), dose: 100.0 mg/kg/injection, schedule: Q07DX002 (ip), vehicle: suspension in saline, higher = larger tumour): 97 % of control | T/C [6]: 99 % of control | T/C (endpoint: median tumor weight (est.), dose: 200.0 mg/kg/injection, schedule: Q07DX002 (ip), vehicle: suspension in saline, higher = larger tumour): 121 % of control | T/C (endpoint: median tumor weight (est.), dose: 400.0 mg/kg/injection, schedule: Q07DX002 (ip), vehicle: saline, higher = larger tumour): 90 % of control | T/C (endpoint: median tumor weight (est.), dose: 400.0 mg/kg/injection, schedule: Q07DX002 (ip), vehicle: suspension in saline, higher = larger tumour): 98 % of control

O=Cc1ccc(O)c(O)c1
T/C [4]: 65 % of control | T/C (endpoint: median tumor weight (est.), dose: 50.0 mg/kg/injection, schedule: Q07DX002 (ip), vehicle: saline with Tween-80, higher = larger tumour): 117 % of control | T/C [5]: 85 % of control | T/C [1]: 91 % of control | T/C (endpoint: median tumor weight (est.), dose: 100.0 mg/kg/injection, schedule: Q07DX002 (ip), vehicle: saline, higher = larger tumour): 63 % of control | T/C [2]: 108 % of control | T/C [6]: 97 % of control | T/C [3]: 113 % of control | T/C (endpoint: median tumor weight (est.), dose: 800.0 mg/kg/injection, schedule: Q07DX002 (ip), vehicle: saline, higher = larger tumour): 88 % of control

CC1=C(/C=C/C(C)=C/C=C/C(C)=C/CO)C(C)(C)CCC1
T/C (endpoint: median tumor weight (est.), dose: 8.0 mg/kg/injection, schedule: Q07DX003 (ip), vehicle: saline with Tween-80, higher = larger tumour): 113 % of control and 106 % of control | T/C (endpoint: median tumor weight (est.), dose: 32.0 mg/kg/injection, schedule: Q07DX003 (ip), vehicle: saline with Tween-80, higher = larger tumour): 194 % of control | T/C (endpoint: median tumor weight (est.), dose: 64.0 mg/kg/injection, schedule: Q07DX003 (ip), vehicle: saline with Tween-80, higher = larger tumour): 111 % of control and 122 % of control
